Experimental data reported in article PMC6990405, “Synthesis and Structure–Activity relationship of 1-(5-isoquinolinesulfonyl)piperazine analogues as inhibitors of Mycobacterium tuberculosis IMPDH” (European Journal of Medicinal Chemistry, 2019).
≈ marks a conversion by molar mass, not a printed value.

What was measured:
[1] = system: M. tuberculosis SRMV2.6 (IMPDH Tyr487Cys); format: cell-based, Mycobacterium tuberculosis
[2] = system: M. tuberculosis guaB2 cKD mutant; format: cell-based; settings: increase in potency against guaB2 cKD mutant upon guaB2 silencing

Structure (SMILES)	MIC90 against SRMV2.6 [1] [µM]	Hyper-sensitivity to guaB2 cKD [2]
O=C(C1CCCCC1)N1CCN(S(=O)(=O)c2cccc3cnccc23)CC1 [Compound 1, Cyclohexyl[4-(isoquinoline-5-sulfonyl)piperazin-1-yl]methanone]	250 (≈ 96.9 µg/mL)	∼32-fold
CC1CCCCC1C(=O)N1CCN(S(=O)(=O)c2cccc3cnccc23)CC1 (stereo not drawn) [Compound 13, [4-(isoquinoline-5-sulfonyl)piperazin-1-yl](2-methylcyclohexyl)methanone]	>250	16–32-fold
O=C(C1CCCCCC1)N1CCN(S(=O)(=O)c2cccc3cnccc23)CC1 [Compound 14, Cycloheptyl[4-(isoquinoline-5-sulfonyl)piperazin-1-yl]methanone]	>250	16-fold
O=C(c1cccc([N+](=O)[O-])c1)N1CCN(S(=O)(=O)c2cccc3cnccc23)CC1 [Compound 18, [4-(isoquinoline-5-sulfonyl)piperazin-1-yl](3-nitrophenyl)methanone]	50 (≈ 21.3 µg/mL)	8-fold
O=C(CC1CCCCC1)N1CCN(S(=O)(=O)c2cccc3cnccc23)CC1 [Compound 22, 2-Cyclohexyl-1-(4-(isoquinolin-5-ylsulfonyl)piperazin-1-yl)ethan-1-one]	>250	16-fold
O=C(Nc1ccc2c(c1)OCO2)N1CCCN(S(=O)(=O)c2cccc3cnccc23)CC1 [Compound 44, 4-(isoquinoline-5-sulfonyl)-N-(2H-1,3-benzodioxol-5-yl)-1,4-diazepane-1-carboxamide]	>100	8–16-fold
CC1CN(S(=O)(=O)c2cccc3cnccc23)CCN1C(=O)Nc1ccc2c(c1)OCO2 (stereo not drawn) [Compound 45, N-(benzo[d][1,3]dioxol-5-yl)-4-(isoquinolin-5-ylsulfonyl)-2-methylpiperazine-1-carboxamide]	>100	8–16-fold
O=C(NCc1ccccc1)N1CCN(S(=O)(=O)c2cccc3cnccc23)CC1 [Compound 46, N-benzyl-4-(isoquinolin-5-ylsulfonyl)piperazine-1-carboxamide]	>100	8-fold
Cc1ccccc1CNC(=O)N1CCN(S(=O)(=O)c2cccc3cnccc23)CC1 [Compound 48, 4-(isoquinolin-5-ylsulfonyl)-N-(2-methylbenzyl)piperazine-1-carboxamide]	15.6 (≈ 6.62 µg/mL)	16–32-fold
